Results published in PubChem BioAssay (NCI).
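Protocol summary: plate cells (96-well), add compound at 5 concentrations, incubate 48 h, interpolate endpoints linearly. GI50 marks 50% less growth. TGI: total growth inhibition.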

Experiments:
Assay in all cases: inhibition of tumour cell growth, NCI panel, 48 h
[1] = test system: BT-549 breast
[2] = test system: LOX IMVI melanoma
[3] = test system: MDA-MB-435
[4] = test system: SW-620 colon
[5] = test system: COLO 205 colon
[6] = test system: UACC-62 melanoma
[7] = test system: A498 renal
[8] = test system: U251 CNS
[9] = test system: HS 578T breast
[10] = test system: SK-MEL-2 melanoma
[11] = test system: NCI-H226 lung
[12] = test system: UACC-257 melanoma
[13] = test system: UO-31 renal
[14] = test system: T-47D breast
[15] = test system: SF-295 CNS
[16] = test system: HL-60(TB) leukemia
[17] = test system: MOLT-4 leukemia
[18] = test system: OVCAR-5 ovarian
[19] = test system: CAKI-1 renal
[20] = test system: HOP-62 NSCLC
[21] = test system: IGROV1 ovarian
[22] = test system: EKVX NSCLC
[23] = test system: HCT-15 colon
[24] = test system: KM12 colon
[25] = test system: ACHN renal
[26] = test system: M14 melanoma
[27] = test system: NCI/ADR-RES ovarian
[28] = test system: HOP-92 NSCLC
[29] = test system: SNB-75 CNS
[30] = test system: SK-OV-3 ovarian
[31] = test system: SK-MEL-5 melanoma
[32] = test system: A549 NSCLC
[33] = test system: OVCAR-8 ovarian
[34] = test system: SR leukemia
[35] = test system: 786-0 renal
[36] = test system: RPMI-8226 leukemia
[37] = test system: CCRF-CEM leukemia
[38] = test system: HCT-116 colon
[39] = test system: TK-10 renal
[40] = test system: HCC-2998 colon
[41] = test system: K-562 leukemia
[42] = test system: SF-539 CNS
[43] = test system: SF-268 CNS
[44] = test system: OVCAR-3 ovarian
[45] = test system: SK-MEL-28 melanoma
[46] = test system: PC-3 prostate
[47] = test system: DU-145 prostate
[48] = test system: HT29 colon
[49] = test system: MCF7 breast
[50] = test system: NCI-H460 lung
[51] = test system: MDA-MB-231 breast
[52] = test system: SNB-19 CNS
[53] = test system: OVCAR-4 ovarian
[54] = test system: NCI-H23 lung
[55] = test system: RXF 393 renal
[56] = test system: SN12C renal
[57] = test system: NCI-H522 lung
[58] = test system: MALME-3M melanoma

O=C(NC1CCCCC1)NS(=O)(=O)c1ccc(N2N=C3c4ccccc4CC3C2c2ccc(Cl)cc2)cc1 (stereo not drawn)
GI50 [1]: 7.01 µM | TGI [1]: 25.2 µM | GI50 [2]: 10.3 µM | TGI [2]: 21.9 µM | GI50 [3]: 18.5 µM | TGI [3]: 50.3 µM | GI50 [4]: 10.3 µM | TGI [4]: 24.3 µM | GI50 [5]: 11.7 µM | TGI [5]: 34 µM | GI50 [6]: 14.9 µM | TGI [6]: 32.7 µM | TGI [7]: 9.2 µM | GI50 [8]: 10.1 µM | TGI [8]: 21.7 µM | GI50 [9]: 4.61 µM | TGI [9]: 37.2 µM | GI50 [10]: 24.4 µM | TGI [10]: 80.4 µM | GI50 [11]: 19.8 µM | TGI [11]: 49.1 µM | GI50 [12]: 19.7 µM | TGI [12]: 53 µM | GI50 [13]: 20 µM | TGI [13]: 40.7 µM | GI50 [14]: 22.6 µM | TGI [14]: > 100 µM | GI50 [15]: 15.9 µM | TGI [15]: 43.9 µM | GI50 [16]: 15.8 µM | TGI [16]: 36.6 µM | GI50 [17]: 4.04 µM | TGI [17]: 19.4 µM | GI50 [18]: 25.5 µM | TGI [18]: 80.4 µM | GI50 [19]: 12.8 µM | TGI [19]: 31.8 µM | GI50 [20]: 15 µM | TGI [20]: 30.9 µM | GI50 [21]: 5.98 µM | TGI [21]: 25.5 µM | GI50 [22]: 5.38 µM | TGI [22]: 22.8 µM | GI50 [23]: 14.5 µM | TGI [23]: 43.7 µM | GI50 [24]: 7.9 µM | TGI [24]: 27.9 µM | GI50 [25]: 13.4 µM | TGI [25]: 31.9 µM | GI50 [26]: 10.8 µM | TGI [26]: 24.4 µM | GI50 [27]: 20.6 µM | TGI [27]: 69.6 µM | GI50 [28]: 10.8 µM | TGI [28]: 31.5 µM | GI50 [29]: 13.2 µM | TGI [29]: 85.9 µM | GI50 [30]: 24.5 µM | TGI [30]: > 100 µM | GI50 [31]: 3.69 µM | TGI [31]: 18.3 µM | GI50 [32]: 17.9 µM | TGI [32]: 47 µM | GI50 [33]: 19.6 µM | TGI [33]: 71.7 µM | GI50 [34]: 0.406 µM | TGI [34]: 1.85 µM | GI50 [35]: 13.3 µM | TGI [35]: 26.3 µM | GI50 [36]: 3.57 µM | TGI [36]: 22.6 µM | GI50 [37]: 3.85 µM | TGI [37]: 23.8 µM | GI50 [38]: 5.15 µM | TGI [38]: 18.6 µM | GI50 [39]: 4.5 µM | TGI [39]: 19.8 µM | GI50 [40]: 3.56 µM | TGI [40]: 7.53 µM | GI50 [41]: 6.71 µM | TGI [41]: 22.4 µM | GI50 [42]: 12.8 µM | TGI [42]: 31.9 µM | GI50 [43]: 6.78 µM | TGI [43]: 34.9 µM | GI50 [44]: 18.4 µM | TGI [44]: 42 µM | GI50 [45]: 29.7 µM | TGI [45]: > 100 µM | GI50 [46]: 4.05 µM | TGI [46]: 18.8 µM | GI50 [47]: 5.5 µM | TGI [47]: 21.1 µM | GI50 [48]: 32.5 µM | TGI [48]: > 100 µM | GI50 [49]: 2.52 µM | TGI [49]: 22.2 µM | GI50 [50]: 4.45 µM | TGI [50]: 30.6 µM | GI50 [51]: 12.8 µM | TGI [51]: 31.2 µM | GI50 [52]: 21.6 µM | TGI [52]: 97.5 µM | GI50 [53]: 38.5 µM | TGI [53]: > 100 µM | GI50 [54]: 12.2 µM | TGI [54]: 36.2 µM | GI50 [55]: 23.2 µM | TGI [55]: 87.5 µM | GI50 [56]: 16.8 µM | TGI [56]: 32.6 µM | GI50 [57]: 9.43 µM | TGI [57]: 30.9 µM

CCOC(=O)n1cc(C2=C(c3ccc(OC)c(OC)c3)COC2=O)c2ccccc21
GI50 [1]: 0.105 µM | TGI [1]: 22.6 µM | GI50 [2]: 0.0623 µM | TGI [2]: > 100 µM | GI50 [4]: 0.0417 µM | TGI [4]: > 100 µM | GI50 [5]: 0.0522 µM | TGI [5]: 0.94 µM | GI50 [6]: 0.0436 µM | TGI [6]: > 100 µM | GI50 [7]: 0.0226 µM | TGI [7]: 0.139 µM | GI50 [8]: 0.0536 µM | TGI [8]: > 100 µM | GI50 [9]: 0.087 µM | TGI [9]: > 100 µM | GI50 [10]: 0.402 µM | TGI [10]: > 100 µM | GI50 [11]: 0.0548 µM | TGI [11]: > 100 µM | GI50 [12]: 16.1 µM | TGI [12]: > 100 µM | GI50 [13]: 0.0632 µM | TGI [13]: > 100 µM | GI50 [15]: 0.0388 µM | TGI [15]: > 100 µM | GI50 [16]: 0.0279 µM | TGI [16]: 0.0851 µM | GI50 [17]: 0.0581 µM | TGI [17]: > 100 µM | GI50 [18]: 0.199 µM | TGI [18]: > 100 µM | GI50 [19]: 0.0465 µM | TGI [19]: 37.1 µM | GI50 [20]: 0.075 µM | TGI [20]: > 100 µM | GI50 [21]: 0.0555 µM | TGI [21]: > 100 µM | GI50 [22]: 0.0938 µM | TGI [22]: > 100 µM | GI50 [23]: 0.0408 µM | TGI [23]: > 100 µM | GI50 [24]: 0.0441 µM | TGI [24]: 14.1 µM | GI50 [25]: 0.0615 µM | TGI [25]: > 73.1 µM | GI50 [26]: 0.0348 µM | TGI [26]: > 100 µM | GI50 [27]: 0.0415 µM | TGI [27]: > 100 µM | GI50 [28]: 0.161 µM | TGI [28]: > 52.8 µM | GI50 [30]: 0.817 µM | TGI [30]: > 100 µM | GI50 [31]: 0.041 µM | TGI [31]: 0.48 µM | GI50 [32]: 0.11 µM | TGI [32]: > 100 µM | GI50 [33]: 0.0954 µM | TGI [33]: > 100 µM | GI50 [58]: 0.0666 µM | TGI [58]: > 100 µM | GI50 [34]: 0.0297 µM | TGI [34]: > 100 µM | GI50 [35]: 0.0625 µM | TGI [35]: > 100 µM | GI50 [36]: 0.0327 µM | TGI [36]: 1.65 µM | GI50 [37]: 0.0367 µM | TGI [37]: > 100 µM | GI50 [38]: 0.0482 µM | TGI [38]: > 100 µM | GI50 [39]: 13.5 µM | TGI [39]: > 91.5 µM | GI50 [40]: 0.0891 µM | TGI [40]: 16.5 µM | GI50 [41]: 0.0325 µM | TGI [41]: > 100 µM | GI50 [42]: 0.031 µM | TGI [42]: 0.156 µM | GI50 [43]: 0.262 µM | TGI [43]: > 100 µM | GI50 [44]: 0.0332 µM | TGI [44]: 0.114 µM | GI50 [45]: 0.271 µM | TGI [45]: > 100 µM | GI50 [46]: 0.0404 µM | TGI [46]: > 100 µM | GI50 [47]: 0.0794 µM | TGI [47]: > 100 µM | GI50 [48]: 0.0364 µM | TGI [48]: > 100 µM | GI50 [49]: 0.0336 µM | TGI [49]: > 100 µM | GI50 [50]: 0.122 µM | TGI [50]: 18.3 µM | GI50 [51]: 0.16 µM | TGI [51]: > 100 µM | GI50 [52]: 0.0551 µM | TGI [52]: > 100 µM | GI50 [53]: 2.36 µM | TGI [53]: > 100 µM | GI50 [54]: 0.157 µM | TGI [54]: > 100 µM | GI50 [55]: 0.0252 µM | TGI [55]: > 100 µM | GI50 [56]: 0.0681 µM | TGI [56]: > 100 µM | GI50 [57]: 0.0389 µM | TGI [57]: > 33.3 µM
